Read-outs that look alike come from different tables or passages of the source.
Experiments:
[1] = tested on: soybean thrips; assay: Biological activity on soybean thrips in greenhouse (foliar spray); type: in vivo; conditions: for mortality at 10 ppm / mortality at 50 ppm: Thrips, foliar; for No. of thrips 1 d / No. of thrips 6 d: foliar spray, 5% SL
Protocol: Test system: naturally occurring thrips population on soybeans planted in greenhouse. The basic number of active thripses were more than 100 thripses per trifoliate leaf. Under the same conditions, the sensitivity of the thrips population to Spinetoram (dose: 50 mg/L) is 96.55% mortality on the 6th day after treatment.
The size of the plot: 10 m^2, no repetition.
Test formulation: each compound was made into 5% SL (compound 5%+emulsifier 5%+solvent to make up 100%).
(1) Spraying time: both adult and larva thripses were in the active period. The number of spray: 1 time.
(2) Standard for water usage: when dose was in mg/kg, the upper leaves were wet and water began to drop therefrom.
(3) Survey standard: count three single leaves as one leaf. Three leaves were randomly selected and investigated for the number of adult and larva thripses on them.
[…] 2 surveys were conducted.

[2] = tested on: Mythimna separata; assay: Indoor bioactivity test against Mythimna separata (leaf dip); type: in vivo; conditions: foliar, 3rd day after treatment
Text: The leaf dip method was used to assay the insecticidal activity of compounds to strains of Mythimna sepatata. Cut above ground part of fresh maize seedlings, about 10 cm. Dip the maize seedlings into the solution prepared with compound of this invention for 10 seconds and dry them in a cool environment. Then cut the dry maize seedlings into 3˜5 cm leaf sections and put 3 leaf sections into each petri dish. Put ten of 4th-instar larvae of Mythimna separatas into each dish, which was repeated by 3 times. Then the dishes were placed in an illumination incubator and incubated at 25° C. in the dark. Symptoms were investigated on the 1st, 2nd and 3rd day after treatment, and the mortality was calculated.

[3] = tested on: Chilo suppressalis; assay: Indoor bioactivity test against Chilo suppressalis (rice stem dip); type: in vivo
Protocol: The leaf dip method was used to assay the insecticidal activity of compounds to strains of Chilo suppressalis. The rice was cultivated in a plastic pot with a diameter of 9 cm and a height of 10 cm. When the rice grew about 25 cm, the aerial part of robust and consistent rice seedlings were selectively cut. Their leaves were removed and their stems of about 8 cm were kept for use. Pour the solution prepared with compound of this invention into the Petri dish (about 40 mL) and immerse the rice stems into the solution for 10 seconds. Take rice stems out and dry them in a cool environment. Put a wet cotton ball at the bottom of finger-like glass tube and 5 rice stems in each tube. Put 10 of 3rd-instar larvae of Chilo suppressa into each tube, which was repeated by 3 times. Seal the tubes with black cotton cloth and tighten them with rubber band. The tubes were placed in a illumination incubator at 28° C. and incubated in the dark. The number of alive Chilo suppressalis and the total number were investigated 3 days after treatment. The mortality was calculated.
According to the above method, Compound 23 and KC2 were selected and parallelly tested against Chilo suppressalis.

[4] = tested on: Plutella xylostella; assay: Indoor bioactivity test against Plutella xylostella (leaf dip); type: in vivo; conditions: foliar; for mortality at 0.4 ppm / mortality at 1 ppm: 3rd day after treatment
Protocol: (§1) The leaf dip method was used to assay the insecticidal activity of compounds to strains of Plutella xylostella. Dip the leaf disc into the solution prepared with compound of this invention for 10 seconds, and dry them in a cool environment. Then place them in Petri dish with 4 discs per dish. Put the filter paper into the Petri dish to moisturize it. Put 10 of Plutella xylostella into each dish, which was repeated by 3 times. The dishes were placed in an illumination incubator and incubated at 25° C. with 14 hL: 10 hD illumination. The number of Plutella xylostella death was investigated on the 1st, 2nd and 3rd day after treatment, and the mortality was calculated.
According to the above method, compound 4 and KC1 were selected and parallelly tested against Plutella xylostella to compare their insecticidal activity.

[5] = tested on: Spodoptera litura; assay: Indoor bioactivity test against Spodoptera litura (leaf dip); type: in vivo; conditions: foliar
Protocol: as §1, with “Spodoptera litura.” for “Plutella xylostella.”, “Spodoptera litura” for “Plutella xylostella”
According to the above method, compound 4, 23 and KC1 were selected and parallelly tested against Spodoptera litura to compare the insecticidal activity.

[6] = tested on: Spodoptera exigua Hiibner; assay: Indoor bioactivity test against Spodoptera exigua Hiibner (leaf dip); type: in vivo; conditions: foliar, 3rd day after treatment
Protocol: as §1, with “strains of Spodoptera exigua Hiibner. Dip the” for “strains of Plutella xylostella. Dip the”, “10 of Spodoptera exigua Hiibners into each” for “10 of Plutella xylostella into each”, “number of Spodoptera exigua Hiibner death was” for “number of Plutella xylostella death was”

[7] = 24 h, read-out: Mortality % 1 d
[8] = 144 h, read-out: Mortality % 6 d
[9] = 3rd day after treatment, read-out: mortality of Chilo suppressalis
[10] = 24 h, 1 d, read-out: Mortality (%) 1 d
[11] = 48 h, 2 d, read-out: Mortality (%) 2 d
[12] = 72 h, 3 d, read-out: Mortality (%) 3 d
[13] = 3rd day after treatment, read-out: mortality of Spodoptera litura

Question: What does the source list for `O=C(Nc1c(Br)cc(C(F)(C(F)(F)F)C(F)(F)F)cc1C(F)(F)F)c1cccc(N(CC2CC2)C(=O)c2ccccc2)c1F` [Compound 4, N-(2-bromo-4-(perfluoropropan-2-yl)-6-(trifluoromethyl)phenyl)-3-(N-(cyclopropylmethyl)benzamido)-2-fluorobenzamide]?
Answer: mortality at 10 ppm [1, 7]: 92.4%; mortality at 50 ppm [1, 7]: 97.7%; mortality at 10 ppm [1, 8]: 98.3%; mortality at 50 ppm [1, 8]: 94.8%; No. of thrips 1 d ([1]; dose 10 ppm): 20; No. of thrips 6 d ([1]; dose 10 ppm): 2; No. of thrips 1 d ([1]; dose 50 ppm): 6; No. of thrips 6 d ([1]; dose 50 ppm): 6; mortality at 1 ppm [2]: ≥ 90%; mortality at 5 ppm [3, 9]: ≥ 90%; mortality at 0.4 ppm [4]: ≥ 90%; mortality at 0.04 ppm [4, 10]: 30%; mortality at 0.04 ppm [4, 11]: 80%; mortality at 0.04 ppm [4, 12]: 100%; mortality at 10 ppm ([5]; 3rd day after treatment): ≥ 90%; mortality at 0.4 ppm [5, 10]: 20%; mortality at 1 ppm [5, 10]: 73.3%; mortality at 0.4 ppm [5, 11]: 26.7%; mortality at 1 ppm [5, 11]: 73.3%; mortality at 0.4 ppm [5, 12]: 26.7%; mortality at 1 ppm [5, 12]: 73.3%; mortality at 1 ppm [6]: 90%

Question: Which mortality at 1 ppm [2] does the source give for `N#Cc1ccc(C(=O)N(CC2CC2)c2cccc(C(=O)Nc3c(Br)cc(C(F)(C(F)(F)F)C(F)(F)F)cc3C(F)(F)F)c2F)cc1` [Compound 23, N-(2-bromo-4-(perfluoropropan-2-yl)-6-(trifluoromethyl)phenyl)-3-(4-cyano-N-(cyclopropylmethyl)benzamido)-2-fluorobenzamide] here?
Answer: Its mortality at 1 ppm is ≥ 90%.

Question: What about the mortality at 5 ppm [3, 9] of the same molecule?
Answer: Its mortality at 5 ppm is ≥ 90%.

Question: And the mortality at 0.4 ppm ([3]; 72 h, 0.4 ppm, 3d)?
Answer: The mortality at 0.4 ppm was 53.3%.

Question: And the mortality at 1 ppm ([3]; 72 h, 1 ppm, 3d)?
Answer: The mortality at 1 ppm was 93.3%.

Question: What about the mortality at 2 ppm ([3]; 72 h, 2 ppm, 3d) of the same molecule?
Answer: The mortality at 2 ppm was 100%.

Question: What about the mortality at 5 ppm ([3]; 72 h, 3d, read-out: Mortality (%, 3d) 5 ppm) of the same molecule?
Answer: Its mortality at 5 ppm is 100%.

Question: And the mortality at 0.4 ppm [4]?
Answer: The mortality at 0.4 ppm was ≥ 90%.

Question: What about the mortality at 0.4 ppm [5, 13] of the same molecule?
Answer: Its mortality at 0.4 ppm is ≥ 90%.

Question: And the mortality at 0.4 ppm [5, 10]?
Answer: Its mortality at 0.4 ppm is 40%.

Question: And the mortality at 1 ppm [5, 10]?
Answer: Its mortality at 1 ppm is 93.3%.

Question: What about the mortality at 0.4 ppm [5, 11] of the same molecule?
Answer: Its mortality at 0.4 ppm is 46.7%.

Question: What about the mortality at 1 ppm [5, 11] of the same molecule?
Answer: Its mortality at 1 ppm is 100%.

Question: And the mortality at 0.4 ppm [5, 12]?
Answer: The mortality at 0.4 ppm was 60%.

Question: What about the mortality at 1 ppm [5, 12] of the same molecule?
Answer: The mortality at 1 ppm was 100%.

Question: What about the mortality at 1 ppm [6] of the same molecule?
Answer: Its mortality at 1 ppm is 90%.

Question: For `COC(c1cc(Br)c(NC(=O)c2cccc(N(CC3CC3)C(=O)c3ccc(C#N)cc3)c2F)c(C(F)(F)F)c1)(C(F)(F)F)C(F)(F)F` [Compound 24, N-(2-bromo-4-(1,1,1,3,3,3-hexafluoro-2-methoxypropan-2-yl)-6-(trifluoromethyl)phenyl)-3-(4-cyano-N-(cyclopropylmethyl)benzamido)-2-fluorobenzamide], which melting point is on record?
Answer: The melting point was 152.3 to 153.5 °C.

Question: With `N#Cc1ccc(C(=O)N(c2cccc(C(=O)Nc3c(Br)cc(C(F)(C(F)(F)F)C(F)(F)F)cc3C(F)(F)F)c2F)C(C2CC2)C2CC2)cc1` [Compound 32, N-(2-bromo-4-(perfluoropropan-2-yl)-6-(trifluoromethyl)phenyl)-3-(4-cyano-N-(dicyclopropylmethyl)benzamido)-2-fluorobenzamide] as the molecule, how does the melting point read?
Answer: Its melting point is 73.5 to 76.1 °C.

Question: What does the source list for `O=C(Nc1c(Br)cc(C(F)(C(F)(F)F)C(F)(F)F)cc1C(F)(F)F)c1cccc(N(CC2CC2)C(=O)c2ccc(C(F)(F)F)cc2)c1F` [Compound 37, N-(2-bromo-4-(perfluoropropan-2-yl)-6-(trifluoromethyl)phenyl)-3-(N-(cyclopropylmethyl)-4-(trifluoromethyl)benzamido)-2-fluorobenzamide]?
Answer: mortality at 1 ppm [2]: ≥ 90%; mortality at 5 ppm [3, 9]: ≥ 90%; mortality at 1 ppm [4]: ≥ 90%; mortality at 0.4 ppm [5, 13]: ≥ 90%; mortality at 1 ppm [6]: 90%

Question: Which results are given for `O=C(Nc1c(Br)cc(C(F)(C(F)(F)F)C(F)(F)F)cc1C(F)(F)F)c1cccc(N(CC2CC2)C(=O)c2ccc(Cl)cc2)c1F` [Compound 41, N-(2-bromo-4-(perfluoropropan-2-yl)-6-(trifluoromethyl)phenyl)-3-(4-chloro-N-(cyclopropylmethyl)benzamido)-2-fluorobenzamide]?
Answer: mortality at 1 ppm [2]: ≥ 90%; mortality at 5 ppm [3, 9]: ≥ 90%; mortality at 0.4 ppm [4]: ≥ 90%; mortality at 0.4 ppm [5, 13]: ≥ 90%; mortality at 1 ppm [6]: 90%

Question: With `COC(c1cc(Br)c(NC(=O)c2cccc(N(CC3CC3)C(=O)c3ccc(Cl)cc3)c2F)c(C(F)(F)F)c1)(C(F)(F)F)C(F)(F)F` [Compound 43, N-(2-bromo-4-(1,1,1,3,3,3-hexafluoro-2-methoxypropan-2-yl)-6-(trifluoromethyl)phenyl)-3-(4-chloro-N-(cyclopropylmethyl)benzamido)-2-fluorobenzamide] as the molecule, how does the melting point read?
Answer: Its melting point is 139.3 to 140.2 °C.

Question: What does the source list for `O=C(Nc1c(Br)cc(C(F)(C(F)(F)F)C(F)(F)F)cc1C(F)(F)F)c1cccc(N(CC2CC2)C(=O)c2ccc(OC(F)(F)F)cc2)c1F` [Compound 60, N-(2-bromo-4-(perfluoropropan-2-yl)-6-(trifluoromethyl)phenyl)-3-(N-(cyclopropylmethyl)-4-(trifluoromethoxy)benzamido)-2-fluorobenzamide]?
Answer: mortality at 1 ppm [2]: ≥ 90%; mortality at 1 ppm [4]: ≥ 90%; mortality at 0.4 ppm [5, 13]: ≥ 90%; mortality at 10 ppm [6]: ≥ 90%

Question: Which results are given for `O=C(Nc1c(Br)cc(C(F)(C(F)(F)F)C(F)(F)F)cc1C(F)(F)F)c1cccc(N(CC2CC2)C(=O)c2ccc(F)cc2)c1F` [Compound 62, N-(2-bromo-4-(perfluoropropan-2-yl)-6-(trifluoromethyl)phenyl)-3-(N-(cyclopropylmethyl)-4-fluorobenzamido)-2-fluorobenzamide]?
Answer: mortality at 1 ppm [2]: ≥ 90%; mortality at 5 ppm [3, 9]: ≥ 90%; mortality at 0.4 ppm [4]: ≥ 90%; mortality at 0.4 ppm [5, 13]: ≥ 90%; mortality at 1 ppm [6]: 90%

Question: With `CC(N(C(=O)c1ccc(C#N)cc1)c1cccc(C(=O)Nc2c(Br)cc(C(F)(C(F)(F)F)C(F)(F)F)cc2C(F)(F)F)c1F)C1(Cl)CC1` (stereo not shown) [Compound 75, N-(2-bromo-4-(perfluoropropan-2-yl)-6-(trifluoromethyl)phenyl)-3-(N-(1-(1-chlorocyclopropyl)ethyl)-4-cyanobenzamido)-2-fluorobenzamide] as the molecule, how does the mortality at 1 ppm [2] read?
Answer: Its mortality at 1 ppm is ≥ 90%.

Question: What about the mortality at 1 ppm [4] of the same molecule?
Answer: Its mortality at 1 ppm is ≥ 90%.

Question: What about the mortality at 10 ppm ([5]; 3rd day after treatment) of the same molecule?
Answer: The mortality at 10 ppm was ≥ 90%.

Question: What about the mortality at 10 ppm [6] of the same molecule?
Answer: The mortality at 10 ppm was ≥ 90%.

Question: Which melting point does the source give for `CC(C1CC1)N(C(=O)c1ccc(S(C)(=O)=O)cc1)c1cccc(C(=O)Nc2c(Br)cc(C(F)(C(F)(F)F)C(F)(F)F)cc2C(F)(F)F)c1F` (stereo not shown) [Compound 77, N-(2-bromo-4-(perfluoropropan-2-yl)-6-(trifluoromethyl)phenyl)-3-(N-(1-cyclopropylethyl)-4-(methylsulfonyl)benzamido)-2-fluorobenzamide] here?
Answer: Its melting point is 76 to 78.8 °C.
